Data taken from paper PMC12216609, “Inhibitors of eIF1A-ribosome interaction unveil uORF-dependent regulation of translation initiation and antitumor and antiviral effects” (The EMBO Journal, 2025).
Where “and” joins values, the source holds several entries; their conditions need not be identical. Identical values can stand only once. Like-named read-outs stand apart in the source and are kept apart here.

Experiments:
[1] = biological target: T1, eIF1A without NTT (Homo sapiens, UniProt P47813); assay: Fluorescence binding assay with NTT-truncated eIF1A; details: for fluorescence ratio, eIF1A Δ NTT: background-corrected, relative to DMSO or lowest 1Ai concentration, replicate columns
T1 construct: His-bdSUMO (cleaved yes); made in house; host or cells: E. coli (BL-21)
T1 sequence (P47813 31-144 limits assumed): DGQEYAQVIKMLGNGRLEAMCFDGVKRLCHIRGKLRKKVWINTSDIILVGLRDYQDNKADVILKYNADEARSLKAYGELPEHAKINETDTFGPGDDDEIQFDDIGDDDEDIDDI

[2] = biological target: T2, eIF1A without CTT (Homo sapiens, UniProt P47813); type: binding; details: for fluorescence ratio, eIF1A Δ CTT: background-corrected, relative to DMSO or lowest 1Ai concentration, replicate columns
T2 construct: His-bdSUMO (cleaved yes); made in house; host or cells: E. coli (BL-21)
T2 sequence (P47813 1-114 limits assumed): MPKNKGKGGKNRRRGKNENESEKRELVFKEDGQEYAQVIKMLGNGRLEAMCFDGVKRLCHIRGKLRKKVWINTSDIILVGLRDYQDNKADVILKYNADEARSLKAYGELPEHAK

[3] = tested on: CUG/GUG vs AUG start codon luciferase reporters in HEK293T cells; assay: Near-cognate AUG starting codon fidelity reporter assay (GUG, CUG vs AUG); type: cell-based; details: for CUG vs AUG (%): CUG start codon reporter relative to AUG reporter (AUG = 100); for CUG vs AUG (%) / GUG vs AUG (%): single-experiment calculation; for GUG vs AUG (%): GUG start codon reporter relative to AUG reporter (AUG = 100); for average CUG and GUG / average CUG and GUG relative to DMSO / CUG Average / GUG Average: NUG experiment; for CUG Average: CUG vs AUG reporter; for GUG Average: GUG vs AUG reporter; for NUG (Final data, Fig. 1E): average CUG and GUG relative to DMSO, 20 µM overnight; for GUG vs AUG data (%): individual repeat; for GUG vs AUG (%) Average: summary average of repeats, DMSO control average […]
[4] = tested on: uORF-bearing 5'UTR firefly reporters in HEK293T cells; assay: uORF reinitiation / leaky scanning firefly reporters; details: for ff/rl, 46 leaky reporter / ff/rl, 46 reporter / ff/rl, normal reporter: single replicates, not normalized to DMSO
Source text: (M) The reference and uORF-bearing reporters were transfected to HEK293T cells together with RL, which served to normalize translation efficiency. The reporter activities are represented as firefly vs RL; n ≥3 independent biological replicates, error bars represent SEM. *P < 0.05, **P < 0.01, Student t test. (N) Firefly Reporters (J) were transfected to HEK293T cells together with normalizing RL. […] Results are represented as firefly vs. RL normalized to DMSO in each biological replicate; n = 4, error bars represent SEM. *P < 0.05, **P < 0.01, Student t test.
In the first and second, we inserted an out-of-frame uAUG 46 or 95 nucleotides before the main ORF, respectively, followed by a downstream stop codon generating an uORF of 10 amino acids. In these constructs, the translation from the main ORF could be either by reinitiation or leaky scanning. In the third construct, this out of frame uAUG lacks a stop codon, causing initiation from the main ORF to exclusively occur via leaky scanning (Fig. 4L). These reporters were transfected into HEK293T cells together with RL luciferase reporter for normalizing transfection efficiency. […] We next examined these reporters in the presence of 1Ais.

[5] = tested on: regulatory CUG of SARS-CoV-2 ORF7a 5'UTR in HEK293T cells; type: cell-based
[6] = compound at 20uM (summary head)
[7] = compound at 10uM (summary head)

## O=C(COc1ccccc1[N+](=O)[O-])NCc1ccc(-c2ccc(Br)cc2)o1 [1Ai-4700]
[1]
  binding to NTT-truncated eIF1A: significantly decreased
[1]; 1Ai conc. 0.25 uM
  fluorescence ratio, eIF1A Δ NTT: 0.8472 and 0.7714
[1]; 1Ai conc. 0.5 uM
  fluorescence ratio, eIF1A Δ NTT: 0.8794 and 0.8467
[1]; 1Ai conc. 1 uM
  fluorescence ratio, eIF1A Δ NTT: 0.866 and 0.8543
[1]; 1Ai conc. 2 uM
  fluorescence ratio, eIF1A Δ NTT: 0.8713 and 0.8518
[1]; 1Ai conc. 4 uM
  fluorescence ratio, eIF1A Δ NTT: 0.8204 and 0.8417
[1]; 1Ai conc. 8 uM
  fluorescence ratio, eIF1A Δ NTT: 2.437 and 0.8015
[1]; 1Ai conc. 16 uM
  fluorescence ratio, eIF1A Δ NTT: 0.7775 and 0.7663
[1]; 1Ai conc. 32 uM
  fluorescence ratio, eIF1A Δ NTT: 0.7078 and 0.6935
[1]; 1Ai conc. 64 uM
  fluorescence ratio, eIF1A Δ NTT: 0.6729 and 0.5628
[1]; 1Ai conc. 256 uM
  fluorescence ratio, eIF1A Δ NTT: 0.6059 and 0.6683
[1]; eIF1A Δ NTT, from the titration data, read-out: IC50 (eIF1A Δ NTT titration block)
  IC50: 30.2 µM
[1]; summary table, fluorescence binding assay, read-out: IC50 concentration (µM), NTT truncation
  IC50: 45.7 µM
[2]; 1Ai conc. 0.25 uM
  fluorescence ratio, eIF1A Δ CTT: 1.002 and 1.029
[2]; 1Ai conc. 0.5 uM
  fluorescence ratio, eIF1A Δ CTT: 0.8837 and 0.9156
[2]; 1Ai conc. 1 uM
  fluorescence ratio, eIF1A Δ CTT: 0.8554 and 0.8332
[2]; 1Ai conc. 2 uM
  fluorescence ratio, eIF1A Δ CTT: 0.9021 and 0.8902
[2]; 1Ai conc. 4 uM
  fluorescence ratio, eIF1A Δ CTT: 0.8119 and 0.7934
[2]; 1Ai conc. 8 uM
  fluorescence ratio, eIF1A Δ CTT: 0.6359 and 0.584
[2]; 1Ai conc. 16 uM
  fluorescence ratio, eIF1A Δ CTT: 0.7372 and 0.671
[2]; 1Ai conc. 32 uM
  fluorescence ratio, eIF1A Δ CTT: 0.5663 and 0.5472
[2]; 1Ai conc. 64 uM
  fluorescence ratio, eIF1A Δ CTT: 0.381 and 0.3897
[2]; 1Ai conc. 256 uM
  fluorescence ratio, eIF1A Δ CTT: 0.2785 and 0.26
[2]; eIF1A Δ CTT, from the titration data, read-out: IC50 (eIF1A Δ CTT titration block)
  IC50: 30.2 µM
[2]; summary table, fluorescence binding assay, read-out: IC50 concentration (µM), CTT truncation
  IC50: 30.2 µM
[3]; [6]
  CUG vs AUG (%): 5.455%
  GUG vs AUG (%): 0.6501%
[3]
  average CUG and GUG: 6.461
  average CUG and GUG relative to DMSO: 1.433
  CUG Average: 9.432
  GUG Average: 3.49
  NUG (Final data, Fig. 1E): 1.433
[3]; compound at 20uM
  GUG vs AUG data (%): 3.85% and 2.62% and 3.02% and 4.47%
  GUG vs AUG (%) Average: 3.49%
[4]; 20uM (1Ai-5175 at 5uM), overnight
  effect on uORF / leaky scanning reporters: inhibit the short-distance reinitiation
[4]; 46 leaky reporter, average of biological repeats
  normalized to DMSO, 46 leaky, average: 0.994
[4]; 46 leaky reporter, biological repeats 1-4
  normalized to DMSO, 46 leaky, biological repeats: 0.989 and 1.082 and 1.159 and 0.746
[4]; 46 leaky reporter, single replicates 1-8 (two dates)
  normalized to DMSO, 46 leaky: 0.973 and 1.005 and 1.055 and 1.109 and 1.618 and 0.700 and 0.255 and 1.237
[4]; -46 reporter, average of biological repeats
  normalized to DMSO, -46, average: 0.679
[4]; -46 reporter, biological repeats 1-4
  normalized to DMSO, -46, biological repeats: 0.691 and 0.744 and 0.743 and 0.536
[4]; -46 reporter, single replicates 1-8 (two dates)
  normalized to DMSO, -46: 0.671 and 0.712 and 0.669 and 0.819 and 1.007 and 0.479 and 0.251 and 0.821
[4]; experiment 12.3.24
  ff/rl, 46 leaky reporter: 3.84E-02 and 3.96E-02 and 4.16E-02 and 4.37E-02
  ff/rl, 46 reporter: 1.06E-01 (2×) and 1.12E-01 and 1.29E-01
  ff/rl, normal reporter: 2.90E-01 and 2.11E-01 and 2.89E-01 and 2.67E-01
[4]; experiment 13.03.24
  ff/rl, 46 leaky reporter: 1.47E-02 and 6.33E-03 and 2.31E-03 and 1.12E-02
  ff/rl, 46 reporter: 2.46E-02 and 1.17E-02 and 6.14E-03 and 2.01E-02
  ff/rl, normal reporter: 3.97E-02 and 5.12E-02 and 7.78E-02 and 1.08E-01
[4]; minus46 reporter, 95nt from uORF to main ORF experiment, Figure 4N source data, replicate experiments, DMSO = 1
  reporter activity norm to DMSO, minus46: 0.3368 and 0.3707
[4]; minus 95 (nt) reporter, 95nt from uORF to main ORF experiment, Figure 4N source data, replicate experiments, DMSO = 1
  reporter activity norm to DMSO, minus 95: 1.361 and 1.106
[4]; ref reporter, 95nt from uORF to main ORF experiment, Figure 4N source data, replicate experiments, DMSO = 1
  reporter activity norm to DMSO, ref: 0.8256 and 0.6094
[4]; refference reporter, average of biological repeats
  normalized to DMSO, refference, average: 0.908
[4]; refference reporter, single replicates 1-8 (two dates)
  normalized to DMSO, refference: 1.031 and 0.751 and 1.028 and 0.950 and 0.503 and 0.648 and 0.985 and 1.371
[4]; reporter 46, experiment 12.3.24
  normalized to DMSO, single replicates: 6.71E-01 and 7.12E-01 and 6.69E-01 and 8.19E-01
[4]; reporter 46, experiment 12.3.24, DMSO = 1
  normalize to DMSO, average: 0.7177
[4]; reporter 46, experiment 13.3.24
  normalized to DMSO, single replicates: 1.01E+00 and 4.79E-01 and 2.51E-01 and 8.21E-01
[4]; reporter 46, experiment 13.3.24, DMSO = 1
  normalize to DMSO, average: 0.6395
[4]; reporter 46 leaky, experiment 12.3.24, DMSO = 1
  normalize to DMSO, average: 1.036
[4]; reporter 46 leaky, experiment 13.3.24
  normalized to DMSO, single replicates: 1.62E+00 and 7.00E-01 and 2.55E-01 and 1.24E+00
[4]; reporter 46 leaky, experiment 13.3.24, DMSO = 1
  normalize to DMSO, average: 0.9525
[4]; reporter normal (refference), experiment 12.3.24
  normalized to DMSO, single replicates: 1.03E+00 (2×) and 7.51E-01 and 9.50E-01
[4]; reporter normal (refference), experiment 13.3.24
  normalized to DMSO, single replicates: 5.03E-01 and 6.48E-01 and 9.85E-01 and 1.37E+00
[4]; reporter refference, experiment 12.3.24, DMSO = 1
  normalize to DMSO, average: 0.9399
[4]; reporter refference, experiment 13.3.24, DMSO = 1
  normalize to DMSO, average: 0.8765
[4]; uORF to main ORF distance extended by 49 nt
  inhibitory effect with extended (long) reinitiation distance: lost

## O=c1cc(CN2CCOCC2)occ1OCCCCCSc1ccnc2cc(C(F)(F)F)ccc12 [1Ai-5730]
[3]; [7]
  CUG vs AUG (%): 9.994%
  GUG vs AUG (%): 3.756%
[3]
  average CUG and GUG: 3.9567
  average CUG and GUG relative to DMSO: 0.8773
  CUG Average: 6.145
  GUG Average: 1.768
  NUG (Final data, Fig. 1E): 0.877
[3]; compound at 10uM
  GUG vs AUG data (%): 1.66% and 2.32% and 1.73% and 1.38%
  GUG vs AUG (%) Average: 1.77%
[5]; normalized to DMSO = 1.000, mean of 3 reps
  average (inverted): 0.744
[5]; overnight
  CUG/AUG ratio (Renilla/firefly): decreased the CUG/AUG ratio to variable degrees
[5]; reps 1-3
  FF CTG signal, mean of duplicates: 5472.4 and 6803.94 and 6446.76
  FF vs Rluc: 54.969 and 55.654 and 55.147
  FF vs Rluc, inverted: 0.018
  Rluc ATG signal, mean of duplicates: 2604320 and 3030300 and 3158315
[5]; reps 1-3, DMSO = 1
  normalized to DMSO: 0.748 and 0.739 and 0.745
